The values that follow come from US4199570A, “1-N-Hetero containing aminoglycoside derivatives” (Shionogi & Co., Ltd., priority 1977, dated 1980).

In brackets after ≈: the same amount, converted by molar mass.

Data set [1] deals with Escherichia coli W-677/JR 66. Description: MIC (Table 2). As to conditions: W677/JR66, read-out: Minimum Inhibitory Concentration (MIC).
Data set [2] concerns Sarcina lutea PCI 1001. The data set is described as follows: MIC (Table 2). As to conditions: Micrococcus luteus, PCI1001, read-out: Minimum Inhibitory Concentration (MIC). In kind it is cell-based.
Data set [3] deals with Citrobactor freundii Ct-31. Description: MIC (Table 2). As to conditions: read-out: Minimum Inhibitory Concentration (MIC).
For data set [4], the system named is Enterobacter cloacae CI-38. The data set is described as follows: MIC (Table 2). As to conditions: CI38, read-out: Minimum Inhibitory Concentration (MIC).
Data set [5] has as its system Serratia marcescens MA-26. Description: MIC (Table 2). As to conditions: MA26, read-out: Minimum Inhibitory Concentration (MIC).
Data set [6] deals with Proteus mirabilis Pm-5. The data set is described as follows: MIC (Table 2). As to conditions: PM5, read-out: Minimum Inhibitory Concentration (MIC).
The test system of data set [7] is Escherichia coli W-677/JR 762. Description: MIC (Table 2). As to conditions: W677/JR762, read-out: Minimum Inhibitory Concentration (MIC).
The subject of data set [8] is Staphylococcus aureus 80285. Description: MIC (Table 2). As to conditions: Staphylococcus aureus, 80285, read-out: Minimum Inhibitory Concentration (MIC).
Data set [9] has as its system Klebsiella pneumoniae Kl 38. The data set is described as follows: MIC (Table 2). As to conditions: KL38, read-out: Minimum Inhibitory Concentration (MIC).
Data set [10] concerns Pseudomonas aeruginosa PP-6. Description: MIC (Table 2). As to conditions: PP6, read-out: Minimum Inhibitory Concentration (MIC).
Data set [11] concerns Escherichia coli W-677/JR 214. Description: MIC (Table 2). As to conditions: W677/JR214, read-out: Minimum Inhibitory Concentration (MIC).
Data set [12] has as its system Streptococcus pyogenes ATCC 10389. Description: MIC (Table 2). As to conditions: ATCC10389, read-out: Minimum Inhibitory Concentration (MIC).
Data set [13] relates to Proteus inconstans In-27. The data set is described as follows: MIC (Table 2). In kind it is cell-based. As to conditions: Providencia alcalifaciens, IN27, tobramycin resistant strain, read-out: Minimum Inhibitory Concentration (MIC).
Data set [14] has as its system Escherichia coli TB-705. Description: MIC (Table 2). As to conditions: TB705, read-out: Minimum Inhibitory Concentration (MIC). In kind it is cell-based.
For data set [15], the system named is Pseudomonas aeruginosa PP-6. The data set is described as follows: MIC (Table 3). As to conditions: PP6, read-out: Minimum Inhibitory Concentration (MIC). The format is cell-based.
The subject of data set [16] is Streptococcus pyogenes C-203. Description: MIC (Table 3). As to conditions: C203, read-out: Minimum Inhibitory Concentration (MIC).
For data set [17], the system named is Escherichia coli W-677/JR-762. Description: MIC (Table 3). As to conditions: W677/JR762, read-out: Minimum Inhibitory Concentration (MIC).
In data set [18] the test system is Proteus mirabilis TB-617. The data set is described as follows: MIC (Table 3). As to conditions: TB617, read-out: Minimum Inhibitory Concentration (MIC). In kind it is cell-based.
The conditions of data set [19]: compared with kanamycin A; cited from earlier work.
The subject of data set [20] is kanamycin A resistant strains. As to conditions: cited from earlier work.

For the molecule `NC[C@H]1O[C@H](O[C@H]2[C@H](O)[C@@H](O[C@H]3O[C@H](CO)[C@@H](O)[C@H](N)[C@H]3O)[C@H](NC(=O)C3(O)CNC3)C[C@@H]2N)[C@H](N)C[C@@H]1O` [Comp. (1), 1-N-(3-hydroxyazetidine-3-carbonyl)tobramycin], the MIC amounted to 3.13 µg/mL (≈ 5.52 µM) in data set [1]; 3.13 µg/mL (≈ 5.52 µM) in data set [2]; 1.56 µg/mL (≈ 2.75 µM) in data set [3]; 0.78 µg/mL (≈ 1.38 µM) in data set [4]; 6.25 µg/mL (≈ 11 µM) in data set [5]; 1.56 µg/mL (≈ 2.75 µM) in data set [6]. In addition, the MIC is 3.13 µg/mL (≈ 5.52 µM) in data set [7]; 0.78 µg/mL (≈ 1.38 µM) in [8]; 0.78 µg/mL (≈ 1.38 µM) in data set [9]; 3.13 µg/mL (≈ 5.52 µM) in [10]; 3.13 µg/mL (≈ 5.52 µM) in data set [11]; 25 µg/mL (≈ 44.1 µM) in [12]. The MIC in data set [13] is 12.5 µg/mL (≈ 22.1 µM); in data set [14], 3.13 µg/mL (≈ 5.52 µM).

As for `NC[C@H]1O[C@H](O[C@H]2[C@H](O)[C@@H](O[C@H]3O[C@H](CO)[C@@H](O)[C@H](N)[C@H]3O)[C@H](NC(=O)C3(O)CNC3)C[C@@H]2N)[C@H](O)[C@@H](O)[C@@H]1O` [Comp. (2), 1-N-(3-hydroxyazetidine-3-carbonyl)kanamycin A], the MIC is 6.25 µg/mL (≈ 10.7 µM) in data set [1]; 12.5 µg/mL (≈ 21.4 µM) in [2]; 3.13 µg/mL (≈ 5.36 µM) in [3]; 3.13 µg/mL (≈ 5.36 µM) in data set [4]; 12.5 µg/mL (≈ 21.4 µM) in [5]; 6.25 µg/mL (≈ 10.7 µM) in data set [6]. The MIC in data set [7] stood at 12.5 µg/mL (≈ 21.4 µM); in data set [8] it was 12.5 µg/mL (≈ 21.4 µM); in [9], 1.56 µg/mL (≈ 2.67 µM); in [10] it was 6.25 µg/mL (≈ 10.7 µM); in data set [11] it was 3.13 µg/mL (≈ 5.36 µM); in data set [12] it was 50 µg/mL (≈ 85.7 µM). Further, the MIC worked out at 6.25 µg/mL (≈ 10.7 µM) in [13] and 12.5 µg/mL (≈ 21.4 µM) in [14].

`NC[C@H]1O[C@H](O[C@H]2[C@H](O)[C@@H](O[C@H]3O[C@H](CO)[C@@H](O)[C@H](N)[C@H]3O)[C@H](N)C[C@@H]2N)[C@H](O)[C@@H](O)[C@@H]1O` [KM-A, kanamycin A]: the MIC was more than 100 µg/mL in [1]; 12.5 µg/mL (≈ 25.8 µM) in data set [2]; more than 100 µg/mL in data set [3]; more than 100 µg/mL in data set [4]; more than 100 µg/mL in data set [5]; more than 100 µg/mL in [6]. In addition, the MIC in [7] was more than 100 µg/mL; in data set [8] it was more than 100 µg/mL; in data set [9], more than 100 µg/mL; in data set [10], more than 100 µg/mL; in [11], more than 100 µg/mL; in [12] it was 100 µg/mL (≈ 206 µM). In addition, the MIC in [13] and in data set [14] was more than 100 µg/mL each time.

For the molecule `NC[C@H]1O[C@H](O[C@H]2[C@H](O)[C@@H](O[C@H]3O[C@H](CO)[C@@H](O)[C@H](N)[C@H]3O)[C@H](N)C[C@@H]2N)[C@H](N)C[C@@H]1O` [TOB, tobramycin], the MIC in data set [1] was found to be 25 µg/mL (≈ 53.5 µM); in [2], 12.5 µg/mL (≈ 26.7 µM); in data set [3] it was 3.13 µg/mL (≈ 6.69 µM); in data set [4], 0.78 µg/mL (≈ 1.67 µM); in data set [5] it was 50 µg/mL (≈ 107 µM); in [6], 12.5 µg/mL (≈ 26.7 µM). The MIC in [7] was 100 µg/mL (≈ 214 µM); in data set [8], 0.78 µg/mL (≈ 1.67 µM); in data set [9], 1.56 µg/mL (≈ 3.34 µM); in [15], 100 µg/mL (≈ 214 µM); in [16], 6.2 µg/mL (≈ 13.3 µM); in data set [10], more than 100 µg/mL. The MIC in [11] is 100 µg/mL (≈ 214 µM); in data set [17], 25 µg/mL (≈ 53.5 µM); in data set [12], 25 µg/mL (≈ 53.5 µM); in [18], 6.2 µg/mL (≈ 13.3 µM); in data set [13], 12.5 µg/mL (≈ 26.7 µM); in data set [14], 6.25 µg/mL (≈ 13.4 µM).

As to `NCC[C@H](O)C(=O)N[C@@H]1C[C@H](N)[C@@H](O[C@H]2O[C@H](CN)[C@@H](O)[C@H](O)[C@H]2O)[C@H](O)[C@H]1O[C@H]1O[C@H](CO)[C@@H](O)[C@H](N)[C@H]1O` [amikacin], the toxicity entry in data set [19] is on record as “approximately the same as kanamycin A”. The “effect against kanamycin A resistant strains” value in [20] is recorded as “effective against kanamycin A resistant strains”.
